The nature of one data set: PK in naïve mice. Type of data set: in vivo. The following applies: mouse, 3 mg kg^−1 subcutaneous; for Cmax: read-out: C0/Cmax. How it is done:
(§1) Mouse studies were performed using pathogen-free CD1 mice (ICR), a well characterized outbred murine strain (supplied by Charles River, Margate UK). All mice were male and weighed 11-15 gram upon arrival. and were allowed to acclimatize for at least 7 days prior to study initiation. Mice were individually housed in sterilized ventilated cages supplied with HEPA filtered sterile air and aspen chip bedding (changed a minimum of once a week). Food and water was available ad libitum. The room temperature was 22° C. 1° C., with a 60% relative humidity and a maximum background noise of 56 dB. Mice were exposed to a 12 h light/dark cycle.
Test article 5 was administered at 3 mg kg^−1 subcutaneously in naïve mice (n=3) that were not immunosuppressed or infected. Whole blood was collected from the tail vein at 5 min, 15 min, 30 min, 1 h, 2 h, 4 h and 8 h. The last sample was taken as a terminal cardiac puncture.

The test system of data set [1] is MRSA USA300 strain NRS384. Nature of the data set: Efficacy, neutropenic mouse thigh infection. Type of data set: in vivo, Staphylococcus aureus (in CD1 mice). The following applies: neutropenic mice, individual thighs, 23 h post treatment. How it is done: as §1
Mice were made neutropenic by a subcutaneous injection of 150 mg kg^−1 and 100 mg kg^−1 cyclophosphamide 4 days and 1 day before infection respectively. Mice were infected in both thighs with MRSA USA300 strain NRS384 (1.47×10^6 CFU mL-1, 7.33×10^4 CFU per thigh) intramuscularly under temporary anesthesia. […] Pretreatment group was euthanized one hour after infection and the other treatment groups were euthanized […]. Weighted thighs were homogenized and cultured on MSA agar at 37° C. for 18-24 h followed by colony counting. Each group consisted of n=6 mice with both thighs infected (n=12 thighs per treatment group) and each thigh was treated as a separate sample. Data analysis was done with StatsDirect software v. 3.2.8 using non-parametric statistical models (Kruskal-Wallis using Conover-Inman to make all pairwise comparisons between groups).
Colony forming units in neutropenic mice infected in each thigh with MRSA followed 1 h later by the first subcutaneous dose of antibiotic at concentrations indicated and subsequently the same dose at indicated intervals, with sacrifice and bacterial load determination in homogenized thighs at 23 h post treatment (24 h post infection). […] Data are mean±SEM (n=12, six mice per group, two thighs per mouse).

In a further data set the test system is VRE E155. Nature of the data set: Resistance development serial passage assay. Type of data set: cell-based, Enterococcus faecium. The following applies: VanA-type VRE strain serially passaged over 30 days in sub-lethal antibiotic concentrations. The protocol: (§2) FIG. 3 illustrates the results obtained when selected compounds were assessed using a resistance development serial passage assay. A) Daily fold-increase of MIC compared to initial MIC against MRSA USA 300 grown in sub-lethal concentrations of daptomycin, compound 5 or compound 16 over 30 days. B). Daily fold-increase of MIC compared to initial MIC against VRE E155 grown in sub-lethal concentrations of daptomycin, compound 5 or compound 16 over 30 days.
(§3) From glycerol stocks, bacterial strains were cultured on blood agar plates and incubated overnight at 37° C. A single colony was grown to exponential phase (OD600=0.5) in TSB+0.002% p80 and diluted 1:100 in fresh media. In polypropylene 96-well microtiter plates, antibiotics were added in biological triplicates and serial diluted 2-fold by transfer and mixing from one well to the next to achieve a final volume of 50 μL per well. An equal volume of bacterial suspension was added to the wells and plates were incubated overnight at 37° C. […] This procedure was repeated for 30 days and the MIC was recorded daily. Cultures containing daptomycin were supplemented with 50 mg L^−1 CaCl2 and 10 mg L^−1 MgSO4. The experiment was performed in biological replicates and for each replicate the MIC was determined from the median of a minimum of triplicates.

A short description of data set [2]: Tolerability in naïve mice. It counts as in vivo. The following applies: 100 mg/kg (SC), two mice. The protocol: as §1
Tolerability of compound 5 was assessed at 100 mg kg^−1 subcutaneous injection (in 10% DMSO in water for injection) in naïve mice (n=2) that were not immunosuppressed or infected.

The test system of the next data set is MRSA USA 300. Nature of the data set: Resistance development serial passage assay. Type of data set: cell-based, Staphylococcus aureus. The following applies: MRSA serially passaged over 30 days in sub-lethal antibiotic concentrations. How it is done: as §2, §3
The subject of a further data set is E. faecium E155. The following applies: Enterococcus faecium E155, strain description; cited from earlier work.

≈ marks a conversion by molar mass, not a printed value. Where “and” joins values, the source holds several entries; their conditions need not be identical. Equal values may be shown once. Read-outs that look alike come from different tables or passages of the source.

For `CCCCCCCNC(N)=Nc1ccc(CN[C@@]2(C)C[C@H](O[C@H]3[C@H](Oc4c5cc6cc4Oc4ccc(cc4Cl)[C@@H](O)[C@@H](NC(=O)[C@@H](CC(C)C)NC)C(=O)N[C@@H](CC(N)=O)C(=O)N[C@H]6C(=O)N[C@H]4C(=O)N[C@H](C(=O)N[C@H](C(=O)O)c6cc(O)cc(O)c6-c6cc4ccc6O)[C@H](O)c4ccc(c(Cl)c4)O5)O[C@H](CO)[C@@H](O)[C@@H]3O)O[C@@H](C)[C@H]2O)cc1` [Compound 5], in “PK in naïve mice” (Mean/Median (n=3)), the AUC0-t is 3.134 µM·h, the “AUC % Extrapolation to infinity” value is reported as 1.9%, the C0/Cmax came to 1813 ng/mL and the CL/CL_F stood at 9.30 mL/min/kg. Further, in “PK in naïve mice” (Mean/Median (n=3)), the Clast amounted to 54.6 ng/mL, the t1/2 is on record as 1.22 h, the tlast turned out to be 8.00 h and the tmax is given as 1.00 h. Moreover, the Cmax in the data set “PK in naïve mice” (Mean/Median (n=3)) was found to be 1070 nM. Further, in “PK in naïve mice” (individual samples 1-3), the AUC0-t is 3.238 µM·h and 3.368 µM·h and 2.797 µM·h; the “AUC % Extrapolation to infinity” value is 3.1% and 0.9% and 1.6%; the AUCinf is 5664 ng hr mL^−1 and 5759 ng hr mL^−1 and 4814 ng hr mL^−1 and 3342 nM hr and 3398 nM hr and 2841 nM hr; the C0/Cmax was 1989 ng/mL and 1903 ng/mL and 1546 ng/mL. Also, in the data set “PK in naïve mice” (individual samples 1-3), the CL/CL_F was 9 mL min^−1 kg^−1 (2×) and 10 mL min^−1 kg^−1; the Clast was 85.3 ng/mL and 34.4 ng/mL and 44.2 ng/mL; the t1/2 is 1.43 h and 1.05 h and 1.17 h; the tlast amounted to 8.00 h. For the same compound, in “PK in naïve mice” (individual samples 1-3), the tmax was 1.00 h (2×) and 2.00 h; the Cmax is 1170 nM and 1120 nM and 912 nM. Besides, in data set [1] (3 mg kg^−1 q6h subcutaneous), the Thigh burden is 113 CFU g^−1 (2×) and 368 CFU g^−1 and 456 CFU g^−1 and 9139 CFU g^−1 and 666 CFU g^−1 and 350 CFU g^−1 and 587 CFU g^−1 and 75 CFU g^−1 and 42132 CFU g^−1 and 7735 CFU g^−1 and 3885 CFU g^−1. For the same compound, the Thigh burden in data set [1] (10 mg kg^−1 q6h subcutaneous) is 368 CFU g^−1 and 35 CFU g^−1 and 77 CFU g^−1 and 96 CFU g^−1 and 76 CFU g^−1 and 40 CFU g^−1 and BLD (2×) and 158 CFU g^−1 and 7984 CFU g^−1 and 81 CFU g^−1 and 34 CFU g^−1. The “resistance induction, fold-increase of MIC compared to initial MIC” value in the data set with VRE E155 is given as “low levels of resistance induction”. In data set [2], the “adverse effects and gross morphology” value is “No adverse effects and normal gross morphology”; the tolerability result is given as “well tolerated”. Also, the “resistance induction, fold-increase of MIC compared to initial MIC” value with MRSA USA 300 is “did not induce resistance”.

Regarding `CN[C@H](CC(C)C)C(=O)N[C@H]1C(=O)N[C@@H](CC(N)=O)C(=O)N[C@H]2C(=O)N[C@H]3C(=O)N[C@H](C(=O)N[C@H](C(=O)O)c4cc(O)cc(O)c4-c4cc3ccc4O)[C@H](O)c3ccc(c(Cl)c3)Oc3cc2cc(c3O[C@@H]2O[C@H](CO)[C@@H](O)[C@H](O)[C@H]2O[C@H]2C[C@](C)(N)[C@H](O)[C@H](C)O2)Oc2ccc(cc2Cl)[C@H]1O` [Vancomycin, reference compound], the MIC vancomycin (strain description) in the data set on E. faecium E155 was 1020 µg/mL (≈ 707 µM). Also, the Thigh burden in data set [1] (25 mg kg^−1 q12h subcutaneous) was 2023 CFU g^−1 and 1148 CFU g^−1 and 142564 CFU g^−1 and 283390 CFU g^−1 and 1204 CFU g^−1 and 310 CFU g^−1 and BLD and 6736 CFU g^−1 and 106 CFU g^−1 and 825 CFU g^−1 and 1030 CFU g^−1.
